Tests used:
C-Raf FL = C-Raf FL (Homo sapiens (Human), UniProt P04049, Y340E/Y341E); experiment: In vitro Raf activity determination (Alpha Screen, phospho-MEK), C-Raf FL (full length, Y340E/Y341E); format: biochemical; conditions: ATP 1 μM; 60 min pre-incubation; 1 hour reaction; column head does not say FL or TR
Summary of the method: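 Sf9-expressed C-Raf incubated with biotinylated kinase-dead MEK1 (K97R) in 50 mM Tris pH 7.5, 15 mM MgCl2, 0.01% BSA, 1 mM DTT with compound, 60 min at room temperature. Phospho-MEK detected by anti-p-MEK AlphaScreen luminescence; IC50 by non-linear regression.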

b-Raf (V600E) = b-Raf (V600E) (Homo sapiens (Human), UniProt P15056, V600E); experiment: In vitro Raf activity determination (Alpha Screen, phospho-MEK), b-Raf (V600E); format: biochemical; conditions: ATP 10 μM, 60 min pre-incubation, 3 hours reaction
From the text: The activity of a compound according to the present invention can be assessed by well-known in vitro & in vivo methods. Raf inhibition data provided herein was obtained using the following procedures.
Sf9 cells co-expressing both proteins were lysed and subjected to immobilized nickel chromatography and eluted with Imidazole. A second column (StrepII binding column) was used and eluted with desthiobiotin. Protein Tags were removed using Prescission enzyme and the protein was further purified using a flowthrough step to remove tags.
Full length MEK1 with an inactivating K97R ATP binding site mutation is utilized as a RAF substrate. The MEK1 cDNA was subcloned with an N-terminal (his)6 tag into a vector for E. Coli expression. The MEK1 substrate was purified from E. Coli lysate by nickel affinity chromatography followed by anion exchange. The final MEK1 preparation was biotinylated (Pierce EZ-Link Sulfo-NHS-LC-Biotin) and concentrated.
The plate was incubated for 60 minutes at room temperature. […] The additions were carried out under dark conditions to protect the detection beads from light. A lid was placed on top of the plate and incubated for 1 hour at room temperature, after which the luminescence was read on a PerkinElmer Envision instrument.

Sequence of C-Raf FL (P04049 whole entry Y340E/Y341E): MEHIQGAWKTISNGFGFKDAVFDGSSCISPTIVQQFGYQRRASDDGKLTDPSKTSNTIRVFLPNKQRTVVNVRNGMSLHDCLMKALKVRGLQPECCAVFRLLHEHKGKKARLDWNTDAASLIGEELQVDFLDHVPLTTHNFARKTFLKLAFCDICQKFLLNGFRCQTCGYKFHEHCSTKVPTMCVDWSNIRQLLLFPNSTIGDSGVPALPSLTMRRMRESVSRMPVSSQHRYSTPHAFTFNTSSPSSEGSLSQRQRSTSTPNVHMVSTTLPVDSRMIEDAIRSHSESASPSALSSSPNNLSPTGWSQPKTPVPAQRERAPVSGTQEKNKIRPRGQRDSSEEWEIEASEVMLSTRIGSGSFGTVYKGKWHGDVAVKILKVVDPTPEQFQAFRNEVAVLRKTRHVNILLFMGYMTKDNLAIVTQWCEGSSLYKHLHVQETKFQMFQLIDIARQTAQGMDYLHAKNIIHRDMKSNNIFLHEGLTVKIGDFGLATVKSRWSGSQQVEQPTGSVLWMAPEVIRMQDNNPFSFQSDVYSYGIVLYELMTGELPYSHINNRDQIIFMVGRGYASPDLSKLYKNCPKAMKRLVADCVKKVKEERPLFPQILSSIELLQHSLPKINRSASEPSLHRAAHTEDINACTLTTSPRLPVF
Sequence of C-Raf FL (P63104 whole entry partner): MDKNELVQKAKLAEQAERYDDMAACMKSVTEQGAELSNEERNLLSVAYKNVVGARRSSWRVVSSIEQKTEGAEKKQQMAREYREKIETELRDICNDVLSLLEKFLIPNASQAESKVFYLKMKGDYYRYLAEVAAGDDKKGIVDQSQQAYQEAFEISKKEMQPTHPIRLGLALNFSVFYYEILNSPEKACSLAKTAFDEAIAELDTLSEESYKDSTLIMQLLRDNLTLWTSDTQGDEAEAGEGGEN
Sequence of b-Raf (V600E) (P15056 whole entry V600E): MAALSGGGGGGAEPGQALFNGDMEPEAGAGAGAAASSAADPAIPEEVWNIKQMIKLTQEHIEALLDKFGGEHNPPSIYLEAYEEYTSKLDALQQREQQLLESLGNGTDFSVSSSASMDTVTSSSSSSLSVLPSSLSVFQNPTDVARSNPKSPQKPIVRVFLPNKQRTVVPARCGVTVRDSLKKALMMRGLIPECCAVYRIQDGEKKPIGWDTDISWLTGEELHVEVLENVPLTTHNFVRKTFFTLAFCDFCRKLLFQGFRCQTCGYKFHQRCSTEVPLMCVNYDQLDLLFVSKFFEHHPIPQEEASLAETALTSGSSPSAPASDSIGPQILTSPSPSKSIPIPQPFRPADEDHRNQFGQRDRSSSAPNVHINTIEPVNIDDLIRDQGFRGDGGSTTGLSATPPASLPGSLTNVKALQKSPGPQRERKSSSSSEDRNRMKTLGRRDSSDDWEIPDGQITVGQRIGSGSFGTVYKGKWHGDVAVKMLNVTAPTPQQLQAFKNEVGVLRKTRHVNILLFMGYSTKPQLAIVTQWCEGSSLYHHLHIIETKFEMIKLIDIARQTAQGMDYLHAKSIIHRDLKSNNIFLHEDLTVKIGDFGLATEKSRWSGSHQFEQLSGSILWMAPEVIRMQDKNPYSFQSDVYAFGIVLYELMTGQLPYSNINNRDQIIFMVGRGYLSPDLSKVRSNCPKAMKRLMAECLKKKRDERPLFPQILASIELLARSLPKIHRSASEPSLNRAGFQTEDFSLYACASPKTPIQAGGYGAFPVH

Row | SMILES | IC50 (C-Raf FL) [nM] | IC50 (b-Raf (V600E)) [nM]
1 | CCOc1ncc(-c2cc(NC(=O)c3ccnc(C(C)(C)C#N)c3)ccc2C)cc1C1(CF)COC1 [Example 31, 2-(2-cyanopropan-2-yl)-N-(3-(6-ethoxy-5-(3-(fluoromethyl)oxetan-3-yl)pyridin-3-yl)-4-methylphenyl)isonicotin-amide] | 0.157 | 0.446
2 | Cc1ccc(NC(=O)c2ccnc(C(C)(C)C#N)c2)cc1-c1cnc(OC2CCOCC2)c(C2(O)COC2)c1 [Example 33, 2-(2-cyanopropan-2-yl)-N-(3-(5-(3-hydroxyoxetan-3-yl)-6-((tetrahydro-2H-pyran-4-yl)oxy)pyridin-3-yl)-4-methylphenyl)isonicotin-amide] | 0.804 | 2.14
3 | Cc1ncc(NC(=O)c2ccnc(C(C)(C)C#N)c2)cc1-c1cnc(OC2CCOCC2)c(C2(O)COC2)c1 [Example 34, 2-(2-cyanopropan-2-yl)-N-(5′-(3-hydroxyoxetan-3-yl)-2-methyl-6′-((tetrahydro-2H-pyran-4-yl)oxy)-[3,3′-bipyridin]-5-yl)isonicotinamide] | 7.63 | 20.5
4 | Cc1ccc(NC(=O)c2ccnc(C(F)(F)F)c2)cc1-c1cnc(OC2CCOCC2)c(C2(O)COC2)c1 [Example 35, N-(3-(5-(3-hydroxyoxetan-3-yl)-6-((tetrahydro-2H-pyran-4-yl)oxy)pyridin-3-yl)-4-methylphenyl)-2-(trifluoromethyl)isonicotin-amide] | 0.297 | 0.966
5 | Cc1ncc(NC(=O)c2cccc(C(F)(F)F)c2)cc1-c1cnc(OCCO)c(C2(O)COC2)c1 [Example 36, N-(6′-(2-hydroxyethoxy)-5′-(3-hydroxyoxetan-3-yl)-2-methyl-[3,3′-bipyridin]-5-yl)-3-(trifluoromethyl)benzamide] | 1.84 | 12
6 | Cc1ncc(NC(=O)c2cccc(C(F)(F)F)c2)cc1-c1cnc(OCCO)c(C2(F)COC2)c1 [Example 37, N-(5′-(3-fluorooxetan-3-yl)-6′-(2-hydroxyethoxy)-2-methyl-[3,3′-bipyridin]-5-yl)-3-(trifluoromethyl)benzamide] | 0.354 | 1.85
7 | Cc1ncc(NC(=O)c2ccnc(C(F)(F)F)c2)cc1-c1cnc(OCCO)c(C2(F)COC2)c1 [Example 38, N-(5′-(3-fluorooxetan-3-yl)-6′-(2-hydroxyethoxy)-2-methyl-[3,3′-bipyridin]-5-yl)-2-(trifluoromethyl)isonicotin-amide] | 0.729 | 4.84
8 | Cc1ncc(NC(=O)c2ccnc(C(C)(F)F)c2)cc1-c1cnc(OCCO)c(C2(F)COC2)c1 [Example 39, 7-(1,1-difluoroethyl)-N-(5′-(3-fluorooxetan-3-yl)-6′-(2-hydroxyethoxy)-2-methyl-[3,3′-bipyridin]-5-yl)isonotinamide] | 1.17 | 5.9
9 | COc1ncc(-c2cc(NC(=O)c3ccnc(C(C)(C)F)c3)cnc2C)cc1C1(C(F)F)COC1 [Example 42, N-(5′-(3-(difluoromethyl)oxetan-3-yl)-6′-methoxy-2-methyl-[3,3′-bipyridin]-5-yl)-2-(2-fluoropropan-2-yl)isonicotinamide] | 0.243 | 1.42
10 | COc1ncc(-c2cc(NC(=O)c3ccnc(C(C)(C)C#N)c3)ccc2C)cc1C1(C=O)COC1 [Example 43, 2-(2-cyanopropan-2-yl)-N-(3-(5-(3-formyloxetan-3-yl)-6-methoxypyridin-3-yl)-4-methylphenyl)isonicotin-amide] | 2.67 | 10.2
11 | Cc1ncc(NC(=O)c2cccc(C(F)(F)F)c2)cc1-c1cc(C2(F)COC2)c(=O)n(CCCO)c1 [Example 44, N-(5′-(3-fluorooxetan-3-yl)-1′-(3-hydroxypropyl)-2-methyl-6′-oxo-1′,6′-dihydro-[3,3′-bipyridin]-5-yl)-3-(trifluoromethyl)benzamide] | 8.63 | 67.9
12 | Cc1ncc(NC(=O)c2cccc(C(F)(F)F)c2)cc1-c1cc(C2(F)COC2)c(=O)n(CC(O)CO)c1 (centres unmarked) [Example 45, N-(1′-(2,3-dihydroxypropyl)-5′-(3-fluorooxetan-3-yl)-2-methyl-6′-oxo-1′,6′-dihydro-[3,3′-bipyridin]-5-yl)-3-(trifluoromethyl)benzamide] | 121 | 1180
13 | COc1ncc(-c2cc(NC(=O)c3cccc(C(F)(F)F)c3)cnc2C)cc1C1(CF)COC1 [Example 49, N-(5′-(3-(fluoromethyl)oxetan-3-yl)-6′-methoxy-2-methyl-[3,3′-bipyridin]-5-yl)-3-(trifluoromethyl)benzamide] | 0.118 | 0.469
14 | Cc1ccc(NC(=O)c2ccnc(C(C)(C)O)c2)cc1-c1cc(C2(C)COC2)c2nccn2n1 [Example 62, 2-(2-hydroxypropan-2-yl)-N-(4-methyl-3-(8-(3-methyloxetan-3-yl)imidazo[1,2-b]pyridazin-6-yl)phenyl)isonicotinamide] | 0.707 | 3.77
15 | CCOc1ncc(-c2cc(NC(=O)c3ccnc(C(F)(F)F)c3)cnc2C)cc1C1(C)COC1 [Example 63, N-(6′-ethoxy-2-methyl-5′-(3-methyloxetan-3-yl)-[3,3′-bipyridin]-5-yl)-2-(trifluoromethyl)isonicotin-amide] | 0.183 | 0.613
16 | CCOc1ncc(-c2cc(NC(=O)c3ccnc(C(C)(C)C#N)c3)cnc2C)cc1C1(C)COC1 [Example 64, 2-(2-cyanopropan-2-yl)-N-(6′-ethoxy-2-methyl-5′-(3-methyloxetan-3-yl)-[3,3′-bipyridin]-5-yl)isonicotinamide] | 1.18 | 7.12
17 | CCOc1ncc(-c2cc(NC(=O)c3cnnc(C(C)(C)C#N)c3)cnc2C)cc1C1(C)COC1 [Example 65, 6-(2-cyanopropan-2-yl)-N-(6′-ethoxy-2-methyl-5′-(3-methyloxetan-3-yl)-[3,3′-bipyridin]-5-yl)pyridazine-4-carboxamide] | 1.13 | 7.13
18 | CCOc1ncc(-c2cc(NC(=O)c3cnnc(C(F)(F)F)c3)cnc2C)cc1C1(C)COC1 [Example 66, N-(6′-ethoxy-2-methyl-5′-(3-methyloxetan-3-yl)-[3,3′-bipyridin]-5-yl)-6-(trifluoromethyl)pyridazine-4-carboxamide] | 0.258 | 1.45
19 | CCOc1ncc(-c2cc(NC(=O)c3cnnc(C(F)(F)F)c3)ccc2C)cc1C1(C)COC1 [Example 67, N-(3-(6-ethoxy-5-(3-methyloxetan-3-yl)pyridin-3-yl)-4-methylphenyl)-6-(trifluoromethyl)pyridazine-4-carboxamide] | 0.078 | 0.304
20 | Cc1ncc(NC(=O)c2ccnc(C(C)(F)F)c2)cc1-c1cccc(C2(C)COC2)c1 [Example 68, 2-(1,1-difluoroethyl)-N-(6-methyl-5-(3-(3-methyloxetan-3-yl)phenyl)pyridin-3-yl)isonicotinamide] | 0.618 | 3.71
21 | Cc1ncc(NC(=O)c2ccnc(C(C)(C)F)c2)cc1-c1cccc(C2(C)COC2)c1 [Example 69, 2-(2-fluoropropan-2-yl)-N-(6-methyl-5-(3-(3-methyloxetan-3-yl)phenyl)pyridin-3-yl)isonicotinamide] | 0.895 | 5.1
22 | Cc1ncc(NC(=O)c2ccnc(C(C)(F)F)c2)cc1-c1cccc(C2COC2)c1 [Example 70, 2-(1,1-difluoroethyl)-N-(6-methyl-5-(3-(oxetan-3-yl)phenyl)pyridin-3-yl)isonicotinamide] | 1.59 | 12.9

From patent US10167279B2 (NOVARTIS AG, priority 2014, dated 2019)
